The experiment has as its system Zika virus strain MR766. It counts as cell-based. As to conditions: for effect on replication of Zika virus (percent infected cells, FIG. 1): Vero cells infected 48 h with ZIKV MR766, MOI 0.3-0.5, compound added at time of infection, DMSO control. Here is the method:
FIG. 1 is a bar graph showing the results of experiments wherein Vero cells were infected for 48 h with Zika virus MR766 and stained for DNA and double stranded viral RNA. The indicated compounds at the indicated concentrations were added at the time of infection. Mean percent infected cells of n=3 experiments are shown +/−SD.
FIG. 2 is a set of images of Vero cells infected for 48 h with Zika virus MR766 and stained for DNA (blue) and double stranded viral RNA (green). Either Lanatoside 6 nM or DMSO (v/v) was added at the time of infection. Mean percent infected cells of n=3 experiments are shown +/−SD.
The effects of a number of small molecules previously reported to be effective in inhibiting replication of related viruses were evaluated on replication of the Zika virus using an immunofluorescence readout for viral protein expression. Molecules tested included Ivermectin 18898-1G; Mycophenolic acid M3536-50MG; Brequinar SML0113-5MG; Sodium Oxamate O2751-5G; Chloroquine C6628-25G; Hydroxychloroquine H0915-5MG; and Lanatoside C L2261-100MG.
Cells: Vero cells (ATCC, CCL-81) were cultured in complete Dulbecco's Modified Eagle Media (Sigma) with 10% FBS (Invitrogen) and 2 mM L-glutamine (Invitrogen).
Viruses: Zika virus strain MR766 was kindly provided by Dr. Robert Tesh at the World Reference Center for Emerging Viruses and Arboviruses at the University of Texas Medical Branch in Galveston Tex. MR766 was obtained originally from a Rhesus macaque in Uganda in 1947. Viruses were propagated in Vero cells (ATCC) (Dick et al., 1952) and the titer determined by standard plaque assays and immunofluorescence imaging assays for E protein expression.
Infection assays: Vero cells were plated the night before in a 384-well plate format. The following day the cells were infected with ZIKV MR766 at an MOI of 0.3-0.5 in the presence of the indicated compounds or the DMSO control (v/v). 48 hr post-infection the cells are fixed with formalin, permeabilized with 0.1% Triton-X100 and immunostained using the 4G2 monoclonal antibody against the E protein. The cells were then incubated with an Alexa Fluor 488 goat anti-mouse secondary and stained for DNA with Hoechst 33342. The cells were imaged on an automated Image Express Micro (IXM) microscope at 4× magnification. Images were analyzed using the MetaXpress software program to determine the total cells per well, and the percentage of infected cells in each well.

“22,23-dihydroavermectin B1a+22,23-dihydroavermectin B1b [ivermectin]”: the “effect on replication of Zika virus (percent infected cells, FIG. 1)” value (“effect … (percent infected cells, FIG. 1)” for short) is “significant effect”. Turning to `NC(=O)c1ncn([C@@H]2O[C@H](CO)[C@@H](O)[C@H]2O)n1` [ribavirin, 1-[(2R,3R,4S,5R)-3,4-dihydroxy-5-(hydroxymethyl)oxolan-2-yl]-1H-1,2,4-triazole-3-carboxamide], the “effect … (percent infected cells, FIG. 1)” value was “significant effect”.

Regarding `CC(=O)O[C@H]1C[C@H](O[C@H]2[C@@H](O)C[C@H](O[C@H]3[C@@H](O)C[C@H](O[C@H]4CC[C@@]5(C)[C@H](CC[C@@H]6[C@@H]5C[C@@H](O)[C@]5(C)[C@@H](C7=CC(=O)OC7)CC[C@]65O)C4)O[C@@H]3C)O[C@@H]2C)O[C@H](C)[C@H]1O[C@@H]1O[C@H](CO)[C@@H](O)[C@H](O)[C@H]1O` [Lanatoside C, 3β-[4-O-β-D-Glycopyranosyl-4-O-(3-O-acetyl-β-D-digitoxopyranosyl)-4-O-β-D-digitoxopyranosyl-β-D-digitoxopyranosyl]-12β,14-dihydroxy-5β,14β-card-20(22)-enolid], the “effect … (percent infected cells, FIG. 1)” value is “significant effect”. The “stopping replication of the virus (FIG. 2)” value (Vero cells infected 48 h with ZIKV MR766, Lanatoside 6 nM vs DMSO added at time of infection) is listed as “effective at stopping replication of the virus”.

The values above are taken from US20190216835A1 (priority 2016, published 2019).
